Results reported in paper PMC11289455 (Scientific Reports, 2024).
Where two headings read alike, the source gives them in different places.

Legend:
[1] = biological target: T1, A2A (adenosine 2A receptor) (Homo sapiens, UniProt P29274); assay: SafetyScreen44: A2A; type: binding
T1 construct: purchased Eurofins Cerep SafetyScreen44

[2] = tested on: healthy participants; assay: First-in-human study, safety and tolerability; type: in vivo
Excerpt: The purpose of the first-in-human, single-center, randomized, double-blind, placebo-controlled study was to determine the safety, tolerability, pharmacokinetics, and pharmacodynamics of JNJ-77242113 in healthy participants. […] AEs were coded using the Medical Dictionary for Regulatory Activities (Version 23.1).

[3] = biological target: T2, COX2 (Homo sapiens, UniProt P35354); assay: SafetyScreen44: COX2; type: biochemical
T2 construct: purchased Eurofins Cerep SafetyScreen44
T2 sequence (P35354 18-604): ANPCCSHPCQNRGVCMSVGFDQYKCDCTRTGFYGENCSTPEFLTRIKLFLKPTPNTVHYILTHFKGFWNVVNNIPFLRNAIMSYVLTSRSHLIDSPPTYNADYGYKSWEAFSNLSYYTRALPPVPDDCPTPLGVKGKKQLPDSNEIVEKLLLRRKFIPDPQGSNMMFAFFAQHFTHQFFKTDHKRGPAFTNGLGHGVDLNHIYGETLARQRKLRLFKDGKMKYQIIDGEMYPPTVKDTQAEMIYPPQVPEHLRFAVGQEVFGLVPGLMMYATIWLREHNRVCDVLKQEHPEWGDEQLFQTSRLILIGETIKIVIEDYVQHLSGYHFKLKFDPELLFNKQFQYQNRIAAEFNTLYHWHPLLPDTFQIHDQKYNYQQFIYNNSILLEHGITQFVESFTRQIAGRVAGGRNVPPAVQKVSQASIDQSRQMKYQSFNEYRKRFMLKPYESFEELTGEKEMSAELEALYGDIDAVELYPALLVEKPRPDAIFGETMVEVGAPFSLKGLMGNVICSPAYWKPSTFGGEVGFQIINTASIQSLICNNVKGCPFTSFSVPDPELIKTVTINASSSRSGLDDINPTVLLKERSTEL

[4] = biological target: T3, H2 (histamine H2 receptor) (Homo sapiens, UniProt P25021); assay: SafetyScreen44: H2; type: binding
T3 construct: purchased Eurofins Cerep SafetyScreen44
T3 sequence (P25021 whole entry): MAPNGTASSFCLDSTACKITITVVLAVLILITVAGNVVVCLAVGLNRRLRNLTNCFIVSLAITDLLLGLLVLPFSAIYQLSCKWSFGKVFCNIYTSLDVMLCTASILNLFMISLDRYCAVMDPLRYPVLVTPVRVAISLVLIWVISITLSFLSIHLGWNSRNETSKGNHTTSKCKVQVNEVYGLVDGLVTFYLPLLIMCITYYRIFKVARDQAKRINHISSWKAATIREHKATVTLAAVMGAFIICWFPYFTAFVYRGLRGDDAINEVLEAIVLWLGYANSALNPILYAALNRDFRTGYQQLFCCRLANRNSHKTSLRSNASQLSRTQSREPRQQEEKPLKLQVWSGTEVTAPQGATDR

[5] = biological target: T4, Lck kinase (lymphocyte-specific protein tyrosine kinase) (Homo sapiens, UniProt P06239); assay: SafetyScreen44: Lck kinase; type: biochemical
T4 construct: purchased Eurofins Cerep SafetyScreen44
T4 sequence (P06239 whole entry): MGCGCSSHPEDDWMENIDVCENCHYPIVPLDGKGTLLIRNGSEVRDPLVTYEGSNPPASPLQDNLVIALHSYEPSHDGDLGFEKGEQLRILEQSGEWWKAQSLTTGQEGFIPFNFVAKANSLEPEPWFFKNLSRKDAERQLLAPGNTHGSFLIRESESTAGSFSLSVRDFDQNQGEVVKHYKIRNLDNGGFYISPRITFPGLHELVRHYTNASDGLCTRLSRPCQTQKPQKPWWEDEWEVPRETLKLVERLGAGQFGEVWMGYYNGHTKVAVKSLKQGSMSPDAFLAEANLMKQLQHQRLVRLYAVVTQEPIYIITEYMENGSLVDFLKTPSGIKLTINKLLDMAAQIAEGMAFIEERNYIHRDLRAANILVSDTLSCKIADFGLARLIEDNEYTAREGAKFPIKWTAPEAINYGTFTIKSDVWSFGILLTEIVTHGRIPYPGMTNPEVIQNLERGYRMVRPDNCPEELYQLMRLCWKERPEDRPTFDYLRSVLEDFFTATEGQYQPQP

[6] = biological target: T5, CCK1 (CCKA) (cholecystokinin 1 receptor) (Homo sapiens, UniProt P32238); assay: SafetyScreen44: CCK1 (CCKA); type: binding
T5 construct: purchased Eurofins Cerep SafetyScreen44
T5 sequence (P32238 1-428): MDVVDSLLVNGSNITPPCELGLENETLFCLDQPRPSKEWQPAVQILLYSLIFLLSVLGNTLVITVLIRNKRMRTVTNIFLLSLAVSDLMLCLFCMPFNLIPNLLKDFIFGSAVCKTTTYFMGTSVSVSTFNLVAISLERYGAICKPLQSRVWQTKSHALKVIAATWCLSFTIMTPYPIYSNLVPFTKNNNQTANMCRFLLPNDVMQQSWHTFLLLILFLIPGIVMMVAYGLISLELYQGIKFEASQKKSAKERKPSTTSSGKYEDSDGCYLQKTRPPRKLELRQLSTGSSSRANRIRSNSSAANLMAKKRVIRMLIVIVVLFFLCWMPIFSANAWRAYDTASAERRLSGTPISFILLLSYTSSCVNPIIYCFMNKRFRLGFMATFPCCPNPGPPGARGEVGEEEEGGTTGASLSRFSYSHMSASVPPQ

[7] = biological target: T6, M3 (muscarinic acetylcholine receptor M3) (Homo sapiens, UniProt P20309); assay: SafetyScreen44: M3; type: binding
T6 construct: purchased Eurofins Cerep SafetyScreen44
T6 sequence (P20309 whole entry): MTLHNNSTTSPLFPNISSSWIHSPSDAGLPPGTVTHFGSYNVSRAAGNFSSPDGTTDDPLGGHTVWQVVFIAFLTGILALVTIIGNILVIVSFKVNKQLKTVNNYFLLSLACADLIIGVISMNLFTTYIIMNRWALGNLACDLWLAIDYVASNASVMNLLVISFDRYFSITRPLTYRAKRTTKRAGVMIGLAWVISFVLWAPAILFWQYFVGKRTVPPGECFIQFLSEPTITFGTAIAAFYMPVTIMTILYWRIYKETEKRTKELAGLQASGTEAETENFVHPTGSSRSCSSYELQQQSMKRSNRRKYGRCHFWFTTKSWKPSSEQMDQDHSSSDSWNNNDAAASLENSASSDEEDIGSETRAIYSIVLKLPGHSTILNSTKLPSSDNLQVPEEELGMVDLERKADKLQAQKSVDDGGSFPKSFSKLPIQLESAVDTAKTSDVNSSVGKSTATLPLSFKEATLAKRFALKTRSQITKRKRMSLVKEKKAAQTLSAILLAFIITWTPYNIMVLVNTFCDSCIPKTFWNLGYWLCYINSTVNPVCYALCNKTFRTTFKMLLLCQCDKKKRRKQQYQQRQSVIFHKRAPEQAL

[8] = biological target: T7, CB2 (cannabinoid receptor type 2) (Homo sapiens, UniProt P34972); assay: SafetyScreen44: CB2; type: binding
T7 construct: purchased Eurofins Cerep SafetyScreen44
T7 sequence (P34972 whole entry): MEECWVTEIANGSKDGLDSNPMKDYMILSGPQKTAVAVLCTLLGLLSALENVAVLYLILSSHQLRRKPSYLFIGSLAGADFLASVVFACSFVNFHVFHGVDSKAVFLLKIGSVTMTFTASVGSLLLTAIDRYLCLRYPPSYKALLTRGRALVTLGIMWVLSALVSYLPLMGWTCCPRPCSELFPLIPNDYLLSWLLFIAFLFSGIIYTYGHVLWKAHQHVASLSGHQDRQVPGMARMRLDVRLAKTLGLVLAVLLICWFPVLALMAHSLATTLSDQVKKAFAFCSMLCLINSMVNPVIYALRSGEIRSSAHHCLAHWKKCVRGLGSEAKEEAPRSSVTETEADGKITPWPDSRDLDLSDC

[9] = biological target: T8, H1 (histamine H1 receptor) (Homo sapiens, UniProt P35367); assay: SafetyScreen44: H1; type: binding
T8 construct: purchased Eurofins Cerep SafetyScreen44
T8 sequence (P35367 whole entry): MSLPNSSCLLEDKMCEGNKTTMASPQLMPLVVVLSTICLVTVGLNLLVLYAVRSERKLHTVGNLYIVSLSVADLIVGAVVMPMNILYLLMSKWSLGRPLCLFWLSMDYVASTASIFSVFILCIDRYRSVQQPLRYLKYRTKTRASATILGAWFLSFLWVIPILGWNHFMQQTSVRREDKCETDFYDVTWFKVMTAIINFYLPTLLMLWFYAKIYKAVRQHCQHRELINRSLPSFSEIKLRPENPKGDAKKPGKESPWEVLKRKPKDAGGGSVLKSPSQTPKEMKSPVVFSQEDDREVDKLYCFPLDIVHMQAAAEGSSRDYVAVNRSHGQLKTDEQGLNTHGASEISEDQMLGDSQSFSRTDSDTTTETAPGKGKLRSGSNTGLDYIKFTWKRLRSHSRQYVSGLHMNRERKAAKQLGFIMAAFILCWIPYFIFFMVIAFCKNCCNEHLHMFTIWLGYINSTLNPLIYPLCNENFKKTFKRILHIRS

[10] = biological target: T9, ETA (endothelin receptor subtype A) (Homo sapiens, UniProt P25101); assay: SafetyScreen44: ETA; type: binding
T9 construct: purchased Eurofins Cerep SafetyScreen44
T9 sequence (P25101 21-427): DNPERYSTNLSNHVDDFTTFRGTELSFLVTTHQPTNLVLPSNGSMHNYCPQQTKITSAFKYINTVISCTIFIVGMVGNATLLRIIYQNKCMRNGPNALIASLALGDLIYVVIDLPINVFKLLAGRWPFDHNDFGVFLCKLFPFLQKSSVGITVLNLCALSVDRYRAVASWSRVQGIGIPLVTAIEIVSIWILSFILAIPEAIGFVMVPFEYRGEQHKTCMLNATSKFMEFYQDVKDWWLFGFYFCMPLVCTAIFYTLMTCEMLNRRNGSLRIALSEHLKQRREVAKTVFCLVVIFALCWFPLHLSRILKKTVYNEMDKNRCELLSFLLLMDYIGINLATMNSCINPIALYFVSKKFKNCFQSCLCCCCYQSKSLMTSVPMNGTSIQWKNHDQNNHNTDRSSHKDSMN

[11] = biological target: T10, μ (MOP) (mu opioid receptor) (Homo sapiens, UniProt P35372); assay: SafetyScreen44: μ (MOP); type: binding
T10 construct: purchased Eurofins Cerep SafetyScreen44
T10 sequence (P35372 whole entry): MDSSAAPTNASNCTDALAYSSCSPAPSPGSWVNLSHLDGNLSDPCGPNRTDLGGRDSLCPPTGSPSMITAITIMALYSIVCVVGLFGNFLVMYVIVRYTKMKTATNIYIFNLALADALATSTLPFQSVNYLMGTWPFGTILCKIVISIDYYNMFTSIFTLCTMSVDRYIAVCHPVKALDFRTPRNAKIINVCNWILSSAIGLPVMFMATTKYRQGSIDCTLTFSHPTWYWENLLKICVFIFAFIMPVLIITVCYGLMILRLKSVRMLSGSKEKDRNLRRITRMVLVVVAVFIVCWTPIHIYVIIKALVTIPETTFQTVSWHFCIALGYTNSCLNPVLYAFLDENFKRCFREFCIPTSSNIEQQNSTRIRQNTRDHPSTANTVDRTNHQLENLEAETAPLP

T1 sequence (P29274 whole entry): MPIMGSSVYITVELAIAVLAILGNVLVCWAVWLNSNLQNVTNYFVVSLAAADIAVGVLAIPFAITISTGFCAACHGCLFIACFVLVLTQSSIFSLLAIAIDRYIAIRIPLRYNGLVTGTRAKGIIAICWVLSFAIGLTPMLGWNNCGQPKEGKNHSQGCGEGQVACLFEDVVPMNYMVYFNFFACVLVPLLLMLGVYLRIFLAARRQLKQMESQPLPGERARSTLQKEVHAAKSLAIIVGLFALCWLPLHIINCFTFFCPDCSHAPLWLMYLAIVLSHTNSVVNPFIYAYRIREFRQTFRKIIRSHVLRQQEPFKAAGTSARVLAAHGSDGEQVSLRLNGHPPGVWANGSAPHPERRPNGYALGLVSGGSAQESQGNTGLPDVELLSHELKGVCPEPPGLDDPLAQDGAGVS

Molecule `CC(=O)NCCCC[C@@H]1NC(=O)[C@H](Cc2c[nH]c3c(C)cccc23)NC(=O)[C@H]([C@@H](C)O)NC(=O)[C@H](CC(N)=O)NC(=O)[C@@H](NC(C)=O)C(C)(C)SSC(C)(C)[C@@H](C(=O)N[C@@H](Cc2ccc(OCCN)cc2)C(=O)N[C@@H](Cc2ccc3ccccc3c2)C(=O)NC2(C(=O)N[C@@H](CCC(=O)O)C(=O)N[C@@H](CC(N)=O)C(=O)N[C@@H](Cc3cccnc3)C(=O)N(C)CC(N)=O)CCOCC2)NC1=O` [JNJ-77242113, S^3,1,S^3,6-cyclo[N-acetyl-3-sulfanyl-L-valyl-L-asparaginyl-L-threonyl-7-methyl-L-tryptophyl-N^6-acetyl-L-lysyl-3-sulfanyl-L-valyl-O-(2-aminoethyl)-L-tyrosyl-3-(naphthalen-2-yl)-L-alanyl-4-aminooxan-4-carbonyl-L-α-glutamyl-L-asparaginyl-3-(pyridin-3-yl)-L-alanyl-N^2-methylglycinamide]] has an inhibition at 10 µM ([1]; 1st run, read-out: Percent inhibition of control ligand binding, A2A, 1st run) of -8.7%, an inhibition at 10 µM ([1]; 2nd run, read-out: Percent inhibition of control ligand binding, A2A, 2nd run) of -6.2% and an inhibition at 10 µM ([1]; mean of 2 runs, read-out: Percent inhibition of control ligand binding, A2A, Mean) of -7.5%. The “Serious AEs or deaths related to JNJ-77242113” value ([2]; all cohorts) was “No serious AEs or deaths”, the “Severity of adverse events” value ([2]; all cohorts) was “mild or moderate” and the “Headache, participants, Part 2” value ([2]; healthy participants, multiple ascending dose) was 13.6%. The “Frequency of treatment-related AEs, Part 2” value ([2]; healthy participants, multiple ascending dose, JNJ-77242113 groups) was 46%, the “Headache, participants, Part 1” value ([2]; healthy participants, single ascending dose) was 10.3% and the “Frequency of treatment-related AEs, Part 1” value ([2]; healthy participants, single ascending dose, JNJ-77242113 groups) was 31%. For the same molecule, the inhibition at 10 µM ([3]; 1st run, read-out: Percent inhibition of control ligand binding, COX2, 1st run) was 7.8%, the inhibition at 10 µM ([3]; 2nd run, read-out: Percent inhibition of control ligand binding, COX2, 2nd run) was -0.9% and the inhibition at 10 µM ([3]; mean of 2 runs, read-out: Percent inhibition of control ligand binding, COX2, Mean) was 3.4%. For the same molecule, the inhibition at 10 µM ([4]; 1st run, read-out: Percent inhibition of control ligand binding, H2, 1st run) was -26.6%, the inhibition at 10 µM ([4]; 2nd run, read-out: Percent inhibition of control ligand binding, H2, 2nd run) was -22% and the inhibition at 10 µM ([4]; mean of 2 runs, read-out: Percent inhibition of control ligand binding, H2, Mean) was -24.3%. The inhibition at 10 µM ([5]; 1st run, read-out: Percent inhibition of control ligand binding, Lck kinase, 1st run) was 8.6%, the inhibition at 10 µM ([5]; 2nd run, read-out: Percent inhibition of control ligand binding, Lck kinase, 2nd run) was -2.3% and the inhibition at 10 µM ([5]; mean of 2 runs, read-out: Percent inhibition of control ligand binding, Lck kinase, Mean) was 3.1%. The inhibition at 10 µM ([6]; 1st run, read-out: Percent inhibition of control ligand binding, CCK1 (CCKA), 1st run) was -29.4%, the inhibition at 10 µM ([6]; 2nd run, read-out: Percent inhibition of control ligand binding, CCK1 (CCKA), 2nd run) was -12.3% and the inhibition at 10 µM ([6]; mean of 2 runs, read-out: Percent inhibition of control ligand binding, CCK1 (CCKA), Mean) was -20.8%. It also gave an inhibition at 10 µM ([7]; 1st run, read-out: Percent inhibition of control ligand binding, M3, 1st run) of -10.5%, an inhibition at 10 µM ([7]; 2nd run, read-out: Percent inhibition of control ligand binding, M3, 2nd run) of -5.2% and an inhibition at 10 µM ([7]; mean of 2 runs, read-out: Percent inhibition of control ligand binding, M3, Mean) of -7.8%. The inhibition at 10 µM ([8]; 1st run, read-out: Percent inhibition of control ligand binding, CB2, 1st run) was -4.9%, the inhibition at 10 µM ([8]; 2nd run, read-out: Percent inhibition of control ligand binding, CB2, 2nd run) was -5.8% and the inhibition at 10 µM ([8]; mean of 2 runs, read-out: Percent inhibition of control ligand binding, CB2, Mean) was -5.4%. For the same molecule, the inhibition at 10 µM ([9]; 1st run, read-out: Percent inhibition of control ligand binding, H1, 1st run) was -8.4%, the inhibition at 10 µM ([9]; 2nd run, read-out: Percent inhibition of control ligand binding, H1, 2nd run) was -9.8% and the inhibition at 10 µM ([9]; mean of 2 runs, read-out: Percent inhibition of control ligand binding, H1, Mean) was -9.1%. It also gave an inhibition at 10 µM ([10]; 1st run, read-out: Percent inhibition of control ligand binding, ETA, 1st run) of -31.3%, an inhibition at 10 µM ([10]; 2nd run, read-out: Percent inhibition of control ligand binding, ETA, 2nd run) of -12.9% and an inhibition at 10 µM ([10]; mean of 2 runs, read-out: Percent inhibition of control ligand binding, ETA, Mean) of -22.1%. The inhibition at 10 µM ([11]; 1st run, read-out: Percent inhibition of control ligand binding, μ (MOP), 1st run) was 5.1%, the inhibition at 10 µM ([11]; 2nd run, read-out: Percent inhibition of control ligand binding, μ (MOP), 2nd run) was -4.8% and the inhibition at 10 µM ([11]; mean of 2 runs, read-out: Percent inhibition of control ligand binding, μ (MOP), Mean) was 0.1%.
